One may read the Emax as the greatest response seen or fitted, relative to the assay's reference. As a reminder, the ED50 is the dose at which the effect has come halfway, by size or by number of responders.

Bridge positions count the residues as written; N and C are the ends. Square brackets hold non-standard residues; d marks the D form. Peptide text beside a SMILES is read from it. NMeF = CN[C@@H](Cc1ccccc1)C(=O)O Where only a bound is given, the exact number is not on record here.

The target in series [1] is Neuropeptide FF receptor 1 (Homo sapiens, UniProt Q9GZQ6). Briefly: Agonist activity at NPFF1R (unknown origin) expressed in HEK293-A cells assessed as inhibition of forskolin-induced cAMP accumulation by measuring maximal efficacy preincubated for 30 mins in presence of 3-isobutyl-1-methylxanthine followed by forskolin and compound addition by competitive PKA binding assay relative to control. The series is classed as functional, cell-based. The note with it: filed as agonist. On the technique in general: cAMP levels reflect the balance of adenylyl cyclase and phosphodiesterase activity.
Sequence of Neuropeptide FF receptor 1 (Q9GZQ6 whole entry): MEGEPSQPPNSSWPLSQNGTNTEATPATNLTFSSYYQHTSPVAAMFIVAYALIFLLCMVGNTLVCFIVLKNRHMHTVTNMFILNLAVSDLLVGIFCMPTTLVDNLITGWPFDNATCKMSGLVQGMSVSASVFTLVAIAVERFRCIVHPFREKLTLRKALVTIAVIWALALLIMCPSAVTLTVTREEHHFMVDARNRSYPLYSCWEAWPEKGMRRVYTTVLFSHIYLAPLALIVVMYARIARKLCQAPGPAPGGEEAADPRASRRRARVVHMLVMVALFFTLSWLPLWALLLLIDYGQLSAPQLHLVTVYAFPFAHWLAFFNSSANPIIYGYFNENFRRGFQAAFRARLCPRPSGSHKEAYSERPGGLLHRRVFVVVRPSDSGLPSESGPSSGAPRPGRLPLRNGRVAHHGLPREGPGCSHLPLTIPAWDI

The nature of series [2]: Toxicity in Kunming mouse assessed as inhibition of gastrointestinal transit at 8681 nmol/kg, po measured after 30 mins by charcoal meal test relative to control. The series is classed as organism-based. Details: scale not given: the % may be the effect or the level left. The note with it: in vivo, 0.5 h.
The subject of series [3] is Mus musculus. Briefly: Antinociceptive activity against Kunming mouse model of thermal-induced nociception assessed as peripheral analgesia administered subcutaneously by tail-flick test. The note with it: sc. Type of series: functional. On the technique in general: Thermal pain tests record how soon the animal reacts.

Consider `CN1C(=O)CNC(=O)[C@H](NC(=O)[C@@H](N)Cc2ccc(O)cc2)CCCCNC(=O)C[C@@H](C(=O)N2CCC[C@H]2C(=O)N[C@@H](CCC(N)=O)C(=O)N[C@@H](CCCNC(=N)N)C(=O)N[C@@H](Cc2ccccc2)C(N)=O)NC(=O)[C@@H]1Cc1ccccc1` (H-Y[dK]G[NMeF]DPQRF-NH2; lactam 2-5), for which the Emax in series [1] turned out to be 73.7%. The Activity in series [2] is over 50%. Further, in series [3], the ED50 was found to be 0.00028 µmol/kg.

(Values after ChEMBL document CHEMBL5034023, “Development of Multifunctional and Orally Active Cyclic Peptide Agonists of Opioid/Neuropeptide FF Receptors that Produce Potent, Long-Lasting, and Peripherally Restricted Antinociception with Diminished Side Effects” (J Med Chem, 2021).)
